# Tested on: Mycobacterium tuberculosis
# Assay: Antimycobacterial activity against Mycobacterium bovis BCG
# Type: functional
# Conditions: variant bovis BCG
row,Compound,MIC
1,NNC(=O)c1ccncc1 [ISONIAZID],0.36 µM
2,COC(=O)Nc1coc(C(=O)Nc2coc(C(=O)NCCc3ccc(O)cc3)c2)c1 [PROXIMICIN B],15.1 µM
3,COc1ccc2c(c1)CC1=C2[C@H](O)[C@@]2(O)C(=O)N3CCC[C@H]3C(=O)N2[C@H]1C=C(C)C,2.41 µM
4,C=CC(C)(C)c1[nH]c2ccccc2c1/C=c1\[nH]c(=O)c2n(c1=O)CCC=2C1=c2c(=O)[nH]/c(=C\c3c(C(C)(C)C=C)[nH]c4ccccc34)c(=O)n2CC1,9.03 µM
5,COC(=O)N[C@H]1[C@@H](C)O[C@@H](O[C@H]2C/C=C(\C)[C@@H]3C=C[C@@H]4[C@@H](O[C@@H]5C[C@@H](O[C@@H]6C[C@@H](O)[C@@H](O[C@H]7C[C@@H](C)[C@H](OC)[C@H](O)C7)[C@H](C)O6)[C@@H](O)[C@H](C)O5)[C@@H](C)C[C@H](C)[C@H]4[C@]3(C)C(=O)C3=C(O)[C@@]4(C[C@@H](C)C(COC(C)=O)=C[C@H]4/C=C/2C)OC3=O)C[C@]1(C)N,1.3 µM
6,COC(=O)N[C@H]1[C@@H](C)O[C@@H](O[C@H]2C/C=C(\C)[C@@H]3C=C[C@@H]4[C@@H](O[C@@H]5C[C@@H](O[C@@H]6C[C@@H](O)[C@@H](O[C@H]7C[C@@H](C)[C@H](OC)[C@H](O)C7)[C@H](C)O6)[C@@H](O)[C@H](C)O5)[C@@H](C)C[C@H](C)[C@H]4[C@]3(C)C(=O)C3=C(O)[C@@]4(C[C@@H](C)C(CO)=C[C@H]4/C=C/2C)OC3=O)C[C@]1(C)[N+](=O)[O-],0.66 µM
7,C1=C2CCCC/C=C\C=C\CCN3CC[C@@H]4[C@H](CCCCCC/C=C\C=C/CCN(C2)C[C@H]14)C3 (relative stereo) [HALICYCLAMINE A],2.16 to 10.8 µM
8,O=C1N[C@@H](Cc2c[nH]c3ccccc23)C(=O)N2CCC[C@@H]12 [BREVIANAMIDE F],44.2 µM
9,COC(=O)N[C@H]1[C@@H](C)O[C@@H](O[C@H]2C/C=C(\C)[C@@H]3C=C[C@@H]4[C@@H](O[C@@H]5C[C@@H](O[C@@H]6C[C@@H](O)[C@@H](O[C@H]7C[C@@H](C)[C@H](OC)[C@H](O)C7)[C@H](C)O6)[C@@H](O)[C@H](C)O5)[C@@H](C)C[C@H](C)[C@H]4[C@]3(C)C(=O)C3=C(O)[C@@]4(C[C@@H](C)C(CO)=C[C@H]4/C=C/2C)OC3=O)C[C@]1(C)N,1.35 µM

# Tested on: Mycobacterium tuberculosis
# Assay: Antibiofilm activity against Mycobacterium bovis BCG after 5 weeks
# Type: functional
# Conditions: variant bovis BCG
row,Compound,MIC
1,CC(C)=C/C=C\[C@H](C)[C@H]1CC[C@]2(C)C[C@H]3[C@H](C(=O)C[C@@]3(C)O)/C(C=O)=C\C[C@@H]12,8.2 µM

# Tested on: Mycobacterium tuberculosis
# Assay: Antibiofilm activity against Mycobacterium bovis BCG
# Type: functional, organism-based
# Conditions: variant bovis BCG
row,Compound,IC50
1,COc1cc(O)c2c(c1)[C@@]13CC(=C(C)C)C[C@H]1[C@](C)(CCC=C(C)C)[C@@](Br)(C2=O)C3=O,640 to 10300 nM
2,CO[C@H]1/C=C/O[C@@]2(C)Oc3c(C)c(O)c4c(O)c(c(/C=N/N5CCN(C)CC5)c(O)c4c3C2=O)NC(=O)/C(C)=C\C=C\[C@H](C)[C@H](O)[C@@H](C)[C@@H](O)[C@@H](C)[C@H](OC(C)=O)[C@@H]1C [RIFAMPIN],1220 nM
3,COc1cc(OC)c2c(c1)[C@@]13CC(=C(C)C)C[C@H]1[C@](C)(CCC=C(C)C)[C@@](Br)(C2=O)C3=O,160 to 2500 nM
4,CC(C)=C1C[C@H]2C(C)(C)[C@@]3(Br)C(=O)c4c(O)cc(O)cc4[C@]2(C1)C3=O,220 to 13900 nM
